# Patent publication US7671085B2, “Non-steroidal farnesoid X receptor modulators and methods for the use thereof” (The Salk Institute for Biological Studies, priority 2002, dated 2010)
# Entries after “also recorded” stand apart in the source; their conditions may differ.
# How the values were obtained:
# [1] = tested on: FXR target genes SHP, MRP-2, BSEP and PLTP; test: Northern blot of FXR target genes in HEPG2-FXR cells; assay type: cell-based; conditions: for induction of FXR target genes, in words: SHP, MRP-2, BSEP, PLTP; for concentration for maximal activation of FXR target genes: overnight treatment
# Protocol: (§1) HepG2 or HT29-derived cell lines were typically cultured in medium containing superstripped FBS for 24 hr before the addition of a ligand or DMSO (vehicle) for an additional 24-48 hr. Total RNA was isolated using TRIzol reagent and was resolved (10 μg/lane) on a 1% agarose, 2.2 M formaldehyde gel, transferred to a nylon membrane (Hybond N^+; Amersham Biosciences, Inc.), and cross-linked to the membrane with UV light.
# (§2) cDNA probes were radiolabeled with [α-^32P]dCTP using the highprime labeling kit (Amersham Biosciences, Inc.). Membranes were hybridized using the QuikHyb hybridization solution (Stratagene, La Jolla, Calif.) according to the manufacturer's protocol. Blots were normalized for variations of RNA loading by hybridization to a control probe, either, 18 S ribosomal cDNA, or the ribosomal protein 36B4. The RNA levels were quantitated using a PhosphorImager (ImageQuant software; Molecular Dynamics, Inc., Sunnyvale, Calif.) in addition to being exposed to X-ray film.
# Total RNA was isolated and the expression of the FXR target genes SHP, MRP-2, BSEP and PLTP was measured by Northern blot analysis. […]
# [2] = tested on: FXR (IBABP, PLTP and MRP-2 promoters); test: transient transfection cell-based assay with natural promoters of FXR targets (IBABP, PLTP, MRP-2)
# From the text: For this study, the following gene promoters were used: intestinal bile acid binding protein (IBABP; see, for example, Grober et al. (1999). Identification of a bile acid-responsive element in the human ileal bile acid-binding protein gene. Involvement of the farnesoid X receptor/9-cis-retinoic acid receptor heterodimer. J Biol Chem. 274(42), 29749-54), phospholipid transfer protein (PLTP) (Urizar et al (2000). The farnesoid X-activated receptor mediates bile acid activation of phospholipid transfer protein gene expression. J Biol Chem. 275(50), 39313-7) and multidrug resistance related protein 2 (MRP-2) (Kast et al. (2002), supra), which are all well characterized targets of FXR. The natural promoters of both the IBABP and PLTP genes contain one copy of an inverted repeat with a one base spacing (IR-1) while MRP-2 contains an ER-8 element. […] The most robust activation (28-fold) was seen on the IBABP promoter. Less robust (2-3 fold) but specific activation was observed on the PLTP and MRP-2 promoters.
# [3] = target: T1, FXR ligand-binding domain (Homo sapiens, UniProt Q96RI1); test: FRET-based coactivator binding assay (SRC-1 peptide recruitment); assay type: biochemical
# T1 sequence (Q96RI1 262-486 limits assumed): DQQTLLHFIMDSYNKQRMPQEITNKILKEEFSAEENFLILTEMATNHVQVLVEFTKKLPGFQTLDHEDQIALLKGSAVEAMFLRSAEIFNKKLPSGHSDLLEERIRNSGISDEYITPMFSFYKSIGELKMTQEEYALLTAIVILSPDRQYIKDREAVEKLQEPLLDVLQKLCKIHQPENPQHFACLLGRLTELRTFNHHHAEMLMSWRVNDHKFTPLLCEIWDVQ
# From the text: To determine if the compounds identified as ligands could promote the association of FXR with co-activators in vitro, a fluorescence resonance energy transfer (FRET)-based coactivator binding assay was employed (see, for example, Makishima et al. (1999), supra, Urizar et al. (2002). A natural product that lowers cholesterol as an antagonist ligand for FXR. Science. 296(5573), 1703-6). This assay relies on an agonist-induced interaction between the nuclear receptor and its coactivator bringing two fluorogenic partners together resulting in the nuclear receptor ligand-dependent FRET.
# [4] = tested on: IBABP mRNA in HT29-FXRFL cells; test: Northern blot of IBABP mRNA in HT29 stable cell lines; assay type: cell-based, Human; conditions: for concentration for maximal induction of IBABP mRNA: overnight treatment
# Protocol: as §1, §2
# Human colon cells HT29 (FXR null until differentiated) were infected with retroviral vectors that expressed either FXR constructs and the puromycin-resistant gene or the puromycin-resistant gene alone. Puromycin resistant cells were isolated and pooled cell populations were propagated that harbored either the vector alone (HT29-BABE), overexpressed FXR full length (HT29-FXRFL), a non-functional FXR truncated at the AF2 region (HT29-FXR-AF2), or a constitutively active FXR that has the VP16 activation domain fused N-terminal of the protein (HT29-VP16-FXR). Confirmation of the successful establishment of the different stable cell lines was established via northern blot analysis of FXR message levels in the cells.
# These observations verify the usefulness of this colon cell model system for studying the induction of FXR target genes.
# The ability of the novel compounds identified herein to induce IBABP gene expression in this cell system was also examined. Total RNA from HT29 stable cells treated overnight with fexaramine, fexarine and fexarene was probed for IBABP gene expression.
# [5] = target: T2, FXR (Homo sapiens, UniProt Q96RI1); test: cell-based FXR transcription assay, FXR responsive promoter linked to luciferase reporter; conditions: for RE^a: cell-based FXR reporter assay, footnote a not given; for FXR activation, in words: cell-based reporter assay, SAR discussion
# T2 construct: using a full length FXR on a natural response element; expressed in transfected cells
# T2 sequence (Q96RI1 1-486): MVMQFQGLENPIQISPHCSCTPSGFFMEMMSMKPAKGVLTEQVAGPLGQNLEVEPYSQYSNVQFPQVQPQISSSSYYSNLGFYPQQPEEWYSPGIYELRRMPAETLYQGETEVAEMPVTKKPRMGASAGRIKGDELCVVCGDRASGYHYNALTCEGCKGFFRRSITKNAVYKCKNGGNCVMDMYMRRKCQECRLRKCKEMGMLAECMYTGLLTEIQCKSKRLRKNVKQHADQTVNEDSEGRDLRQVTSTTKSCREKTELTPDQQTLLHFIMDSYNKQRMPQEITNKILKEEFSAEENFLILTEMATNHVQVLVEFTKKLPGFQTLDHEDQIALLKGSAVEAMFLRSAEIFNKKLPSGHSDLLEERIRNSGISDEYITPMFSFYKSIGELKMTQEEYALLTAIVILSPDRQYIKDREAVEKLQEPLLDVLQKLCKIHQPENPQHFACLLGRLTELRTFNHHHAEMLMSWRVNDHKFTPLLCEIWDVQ
# Outline: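 Cells co-transfected with full-length FXR and a luciferase reporter driven by a natural response element on a minimal promoter. Compound exposure ≈10 μM for 18 h before washing and luciferase read-out, in 384-well format, with CDCA as reference activator. EC50 derived from transcriptional activity.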
# [6] = HT29-BABE or HT29-FXR-AF2 cell lines
Compound,"induction of FXR target genes, in words [1]",concentration for maximal activation of FXR target genes [1] [µM],concentration of maximum efficacy [2] [µM],EC50 [3] [nM],"induction of IBABP mRNA, in words [4, 6]","induction of IBABP mRNA, in words ([4]; HT29-FXRFL cells)",concentration for maximal induction of IBABP mRNA ([4]; HT29-FXRFL cells) [µM],RE^a [5],"FXR activation, in words [5]","induction of FXR target genes, in words ([1]; listed as fexaramine)"
COC(=O)C=Cc1cccc(N(Cc2ccc(C=Cc3ccccc3)cc2)C(=O)C2CCCCC2)c1 [Compound 121],strong induction,10,1,~255,No induction,induced expression of the IBABP mRNA,1,1.55,excellent activity; also recorded: among the most active,–
COC(=O)/C=C/c1cccc(N(Cc2ccc(-c3ccc4c(c3)OCO4)cc2)C(=O)C2CCCCC2)c1 [Compound 244],strong induction,10,1,222,No induction,induced expression of the IBABP mRNA,1,1.90,excellent activity,–
COC(=O)/C=C/c1cccc(N(Cc2ccc(-c3ccc(N(C)C)cc3)cc2)C(=O)C2CCCCC2)c1 [Compound 259],–,10,1,255,No induction,induced expression of the IBABP mRNA,1,1.72,excellent activity,most effective inducer of target genes; also recorded: matched GW4064 induced activation of the BSEP and MRP-2 genes
